Values quoted from earlier work as cited in patent US20250275973A1, “USE OF ALC1 INHIBITORS AND SYNERGY WITH PARPI” (EISBACH BIO GMBH, priority 2022, published 2025).

Test system: GFP-tagged PARP1 and PARP2
Details: U2OS cells treated with PARPi; background section

Q: For `Cn1ncnc1[C@H]1c2n[nH]c(=O)c3cc(F)cc(c23)N[C@@H]1c1ccc(F)cc1` [talazoparib], which “retention/recruitment of GFP-tagged PARP1 and PARP2 at induced DNA lesions” value is on record?
A: enhanced retention

Q: Which “retention/recruitment of GFP-tagged PARP1 and PARP2 at induced DNA lesions” value does the source give for `C[C@]1(c2nc3c(C(N)=O)cccc3[nH]2)CCCN1` [veliparib] here?
A: overall less PARP1/PARP2 recruitment
